Measurements taken from PMC9910428 (Proceedings of the National Academy of Sciences of the …, 2022).
Read-outs that look alike come from different tables or passages of the source.

How the values were obtained:
Sm.TRPM[D1677E]PZQ = test: FLIPR Ca2+ reporter assay, Sm.TRPM[D1677E]PZQ mutant; type: cell-based, Schistosoma mansoni
Sm.TRPM[N1388H]PZQ = test: FLIPR Ca2+ reporter assay, Sm.TRPM[N1388H]PZQ mutant; type: cell-based, Schistosoma mansoni
Sm.TRPM[T1518S]PZQ = test: FLIPR Ca2+ reporter assay, Sm.TRPM[T1518S]PZQ mutant; type: cell-based, Schistosoma mansoni
Ml.TRPM[E1495D]PZQ = Ml.TRPM[E1495D]PZQ (Macrostomum lignano, UniProt A0A267GS13); type: cell-based
Sm.TRPM[D1677Y]PZQ = test: FLIPR Ca2+ reporter assay, Sm.TRPM[D1677Y]PZQ mutant; type: cell-based, Schistosoma mansoni
Sm.TRPM[W1667A]PZQ = test: FLIPR Ca2+ reporter assay, Sm.TRPM[W1667A]PZQ mutant; type: cell-based, Schistosoma mansoni
cyclophyllidean cestodes = details: cited from earlier work
[1] = system: larval and adult diphyllobothriids; details: cited from earlier work
D. japonica = details: read-out: EC50 for evoking bipolarity; cited from earlier work
Fh.TRPMPZQ = Fh.TRPMPZQ with S1 threonine residue; cited from earlier work

Ml.TRPM[E1495D]PZQ, sequence (A0A267GS13 1-1954, stated change not applied): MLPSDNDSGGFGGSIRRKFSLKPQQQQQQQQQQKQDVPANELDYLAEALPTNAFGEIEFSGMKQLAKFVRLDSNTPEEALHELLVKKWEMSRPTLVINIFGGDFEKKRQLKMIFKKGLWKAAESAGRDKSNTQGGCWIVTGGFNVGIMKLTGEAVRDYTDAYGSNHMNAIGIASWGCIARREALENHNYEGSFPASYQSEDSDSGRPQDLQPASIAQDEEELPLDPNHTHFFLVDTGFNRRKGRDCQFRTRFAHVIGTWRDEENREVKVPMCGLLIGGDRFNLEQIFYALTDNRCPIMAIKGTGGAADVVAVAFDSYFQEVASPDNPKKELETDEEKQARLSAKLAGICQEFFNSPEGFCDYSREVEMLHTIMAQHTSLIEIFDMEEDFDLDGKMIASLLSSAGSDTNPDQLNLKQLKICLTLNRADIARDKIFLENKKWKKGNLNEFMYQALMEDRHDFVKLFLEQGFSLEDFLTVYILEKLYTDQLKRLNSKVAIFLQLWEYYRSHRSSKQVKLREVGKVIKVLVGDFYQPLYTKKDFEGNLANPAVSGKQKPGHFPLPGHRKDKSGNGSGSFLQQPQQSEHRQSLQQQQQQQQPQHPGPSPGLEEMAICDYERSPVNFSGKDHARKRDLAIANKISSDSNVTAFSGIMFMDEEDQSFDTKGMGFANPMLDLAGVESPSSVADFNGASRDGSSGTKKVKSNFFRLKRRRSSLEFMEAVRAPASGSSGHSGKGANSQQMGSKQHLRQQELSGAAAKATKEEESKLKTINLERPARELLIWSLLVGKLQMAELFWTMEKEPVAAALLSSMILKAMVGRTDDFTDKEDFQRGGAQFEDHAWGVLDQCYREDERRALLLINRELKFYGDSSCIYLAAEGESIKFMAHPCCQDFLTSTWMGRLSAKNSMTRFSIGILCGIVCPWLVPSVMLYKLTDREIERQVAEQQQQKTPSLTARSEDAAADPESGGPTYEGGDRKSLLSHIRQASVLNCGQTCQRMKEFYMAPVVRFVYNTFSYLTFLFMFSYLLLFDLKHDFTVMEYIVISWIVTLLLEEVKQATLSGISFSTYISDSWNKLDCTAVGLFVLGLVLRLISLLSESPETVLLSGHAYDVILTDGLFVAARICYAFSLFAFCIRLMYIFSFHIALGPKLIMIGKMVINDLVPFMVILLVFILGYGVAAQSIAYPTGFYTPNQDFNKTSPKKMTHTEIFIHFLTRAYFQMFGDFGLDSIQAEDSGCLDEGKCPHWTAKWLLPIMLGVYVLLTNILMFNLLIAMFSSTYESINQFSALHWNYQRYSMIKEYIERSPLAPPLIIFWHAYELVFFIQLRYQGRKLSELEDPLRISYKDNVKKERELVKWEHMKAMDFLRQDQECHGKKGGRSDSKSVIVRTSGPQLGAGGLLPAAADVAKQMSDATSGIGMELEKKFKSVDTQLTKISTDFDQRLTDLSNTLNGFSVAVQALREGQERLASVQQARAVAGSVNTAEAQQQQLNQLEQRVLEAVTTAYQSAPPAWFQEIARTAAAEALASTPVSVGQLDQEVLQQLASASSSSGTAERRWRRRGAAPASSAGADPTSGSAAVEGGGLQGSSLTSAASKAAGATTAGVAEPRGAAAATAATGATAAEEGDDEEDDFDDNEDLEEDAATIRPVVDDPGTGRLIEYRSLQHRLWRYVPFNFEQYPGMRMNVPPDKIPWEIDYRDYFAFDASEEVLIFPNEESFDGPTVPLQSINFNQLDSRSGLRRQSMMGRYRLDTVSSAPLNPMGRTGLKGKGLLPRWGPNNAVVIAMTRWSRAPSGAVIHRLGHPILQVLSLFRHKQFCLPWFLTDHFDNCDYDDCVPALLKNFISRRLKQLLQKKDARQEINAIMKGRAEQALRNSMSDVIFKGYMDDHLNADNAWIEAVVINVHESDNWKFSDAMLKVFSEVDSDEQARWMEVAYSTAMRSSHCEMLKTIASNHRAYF

## O=C(C1CCCCC1)N1CC(=O)N2CCc3ccccc3C2C1 (racemic) [(±)-PZQ, praziquantel]
Sm.TRPM[D1677E]PZQ
  responsiveness of mutant channel: no responsiveness
Sm.TRPM[D1677E]PZQ; listed as PZQ
  responsiveness of mutant channel: ablated sensitivity
Sm.TRPM[N1388H]PZQ
  sensitivity compared with the wild-type channel: equivalent sensitivity
Sm.TRPM[T1518S]PZQ
  sensitivity compared with the wild-type channel: equivalent sensitivity
Ml.TRPM[E1495D]PZQ
  increase of sensitivity versus wild-type Ml.TRPMPZQ: ~ 2.5 fold
Ml.TRPM[E1495D]PZQ; Ml.TRPM[E1495D]PZQ, Ca2+
  EC50: 21.1 ± 3.1 µM
Sm.TRPM[D1677Y]PZQ
  sensitivity of mutant channel compared with wild type: enhanced
Sm.TRPM[W1667A]PZQ
  sensitivity of mutant channel compared with wild type: increased sensitivity
Cyclophyllidean cestodes
  lowest concentration with deleterious effects in vitro: 320 pM
[1]
  concentration required to show lethality: > 320 µM
D. japonica
  EC50: 35 ± 7 µM
Fh.TRPMPZQ
  sensitivity of channel: insensitive
